Test results taken from US20210052701A1, “Methods of Treating Vascular Leakage Using CXCL12 Peptides” (The Medical College of Wisconsin, Inc., priority 2018, published 2021).

B1: CXCL11: an ACKR3 and CXCR3 agonist (protein, UniProt O14625 22-94, looked up)
C-X-C motif chemokine 11: FPMFKRGRCLCIGPGVKAVKVADIEKASIMYPSNNCDKIEVIITLKENKGQRCLNPKSKQARLIIKKVERKNF

Tests used:
hPPAEC [1] = assay: Effects of CXCR4 agonists / CXCL12 variants on thrombin-induced impairment of hPPAEC monolayer permeability; type: cell-based, human
Protocol: FIGS. 3A-3D show effects of CXCL12 and ubiquitin on thrombin-induced impairment of hPPAEC monolayer permeability. hPPAEC were grown to a confluent monolayer on collagen-coated permeable membranes. (A) hPPAEC were pre-treated with vehicle, 100 nM of CXCL12 or ubiquitin for 10 minutes, as indicated, and then exposed to thrombin (50 nM), followed by the addition of FITC-dextran. Vehicle: no thrombin. Endothelial permeability was assessed by measuring the amount of FITC-dextran that permeated through the cell monolayer. No cells: 100% permeability (open circles). RFU: Relative fluorescence units. N=3 in quadruplicate. *: p<0.05 vs. vehicle/thrombin. (B-D) hPPAEC were exposed to 35 nM of thrombin or vehicle. After 10 min, thrombin-exposed cells were treated with vehicle, CXCL12 (50 nM) and/or AMD3100 (10 μM) (B), with vehicle, ubiquitin (50 nM) and/or AMD3100 (10 μM) (C) or with various concentrations of ubiquitin (D) followed by the addition of FITC-dextran. The experimental conditions are indicated. Endothelial permeability was assessed by measuring the amount of FITC-dextran that permeated through the cell monolayer. RFU: Relative fluorescence units. N=3 in quadruplicate. *: p<0.05 vs. thrombin/vehicle (2-way ANOVA/Bonferroni's multiple comparison post hoc test).
(§1) FIGS. 7A-7D show dose-dependent effects of CXCL12α/β, CXCL12 (3-68) and CXCL12 mutants K27A/R41A/R47A, R47E and S-S4V on thrombin-induced impairment of hPPAEC monolayer permeability. hPPAEC cells were grown to a confluent monolayer on collagen-coated permeable membranes. hPPAEC were then exposed to 35 nM of thrombin. After 10 min, thrombin-exposed cells were treated with vehicle or 50 nM (A), 5 nM (B), 0.5 nM (C) or 0.05 nM (D) of the various proteins, as indicated. In (D) 5 nM CXCL12a was used as a positive control. N=3 in quadruplicate.
as §1, with “8A-8D” for “7A-7D”, “CXCL12α, CXCL121” for “CXCL12α/β, CXCL12 (3-68)”, “CXCL122” for “CXCL12 mutants K27A/R41A/R47A, R47E and S-S4V”, “CXCL12α” for “CXCL12a”
FIGS. 9A-9B show inhibition of thrombin-induced hyper-permeability of hPPAEC by CXCL12/CXCL12 variants. % inhibition: % inhibition of thrombin-induced hyperpermeability. Data from FIGS. 7 and 8 at t=255 min. N=3 in quadruplicate. *: p<0.05 vs. CXCL12a (2-way ANOVA/Bonferroni's multiple comparison post hoc test).
(§2) In vitro vascular permeability assays—Permeability assays were obtained from Millipore (ECM642) and performed as per manufacturer's instructions. In brief, 96-well collagen-coated permeability assay plates were pre-hydrated for 15 min, 5×10^5 cells were seeded on each well and grown to a confluent monolayer for 48 hours. Fluorescein isothiocyanate (FITC)-dextran (20 μg/mL) was then added on top of the monolayer and the amount of FITC-dextran that permeated through the monolayer was quantified by measuring fluorescence in a Synergy 2 Multi-mode Microplate Reader (BioTek, Winooski, Vt.) at various time points over a 255 min time period.

hPPAEC [2] = assay: In vitro vascular permeability assay (FITC-dextran), hPPAEC monolayer, CXCR4/ACKR3 ligands without thrombin; type: cell-based, human; conditions: 50 nM ligand for 10 min, then FITC-dextran; no thrombin
Protocol: FIGS. 1A-1B show expression of CXCR4, ACKR3 and CXCR4:ACKR3 heteromers on hPPAEC and effects of CXCR4/ACKR3 ligands on hPPAEC monolayer permeability. (A) Detection of CXCR4, ACKR3 and CXCR4:ACKR3 heteromers on hPPAEC by PLA. Typical PLA images for the detection of individual receptors and CXCR4:ACKR3 heteromers. Images show merged PLA/40,6-diamidino-2-phenylindole dihydrochloride (DAPI) signals. Ctrl: Omission of one secondary antibody. (B) hPPAEC were grown to a confluent monolayer on collagen-coated permeable membranes. Cells were then exposed to vehicle or 50 nM of CXCR4/ACKR3 ligands for 10 minutes, as indicated, followed by the addition of FITC-dextran. Endothelial permeability was assessed by measuring the amount of FITC-dextran that permeated through the cell monolayer. N=3 in quadruplicate. No cells: 100% permeability, open squares. RFU: Relative fluorescence units. *: p<0.05 vs. vehicle (2-way ANOVA/Bonferroni's multiple comparison post hoc test).
Cells and cell lines—Human primary pulmonary artery endothelial cells (hPPAEC) (ATCC, PCS-100-022) and the human lung microvascular endothelial cell line HULEC-5a (ATCC, CRL-3244) were cultured in vascular cell basal medium (ATCC, PCS-100-030) with endothelial cell growth kit-VEGF (ATCC, PCS-100-041). The HTLA cell line, a HEK293 cell line stably expressing a tTA-dependent luciferase reporter and a β-arrestin2-TEV fusion gene, was generously provided by the laboratory of Dr. Bryan Roth and maintained in high glucose Dulbecco's Modified Eagle's Medium supplemented with 10% (vol/vol) FBS, 1× non-essential amino acids, 100 U/mL penicillin, 100 μg/mL streptomycin, 50 μg/mL hygromycin B, and 2 μg/mL puromycin. All cells were cultured at 37° C., 5% CO2 in a humidified atmosphere.
as §2

[3] = system: animal model of acute respiratory distress syndrome (ARDS); assay: Animal model of ARDS: lung ischemia reperfusion injury plus hemorrhage (P:F ratio, lung injury score); type: in vivo, Sprague-Dawley rats; conditions: for development of ARDS (P:F ratio): 0.14 μmol/kg i.v. within 10 min after reperfusion, until t=300 min; for histological signs of lung injury, injured lung (lung injury score): H&E sections, vs. vehicle
Protocol: Animals underwent 70 min of […] lung ischemia for 70 min plus hemorrhage to a MAP of 40 mmHg for the last 30 min of ischemia, followed by fluid resuscitation to a MAP of 60 mmHg until t=300 min. Arrow: drug injection. Dashed lines indicate the P:F ratio (mmHg) threshold values for the diagnosis of mild, moderate and severe ARDS. Vehicle: n=5. CXCL12: n=3. CXCL12: n=4. CXCL12-LM: n=3, CXCL12-LD: n=4. CXCL12 K27A/R41A/R47A: n=3. LI+HEM: lung ischemia reperfusion injury plus hemorrhage. Data are mean±SEM. *: p<0.05 vs. vehicle (2-way ANOVA/Dunnett's multiple comparisons test).
FIGS. 12A-12C show lung histology after treatment with CXCL12 and engineered CXCR4 agonists A. Lung specimens were placed in formalin fixative solution and were then embedded in paraffin wax, sliced into 5 μm sections and stained with H&E. Representative images from H&E stained lung sections from animals after vehicle (left) and CXCL12 ([…], right treatment. B/C. Lung injury scores (B. uninjured (left) lung; C. injured (right) lung). Data are median±interquartile ranges. Data were analyzed with the Kruskal Wallis test with Dunn's multiple comparisons test. The level of statistical significance (p) vs. ctrl. (vehicle treatment) indicated.
We tested therapeutic efficacy of wild-type CXCL12, CXXL12-locked dimer (LD), CXCL12-locked monomer (LM) and the triple mutant CXCL12 K27A/R41A/R47A in an animal model of acute respiratory distress syndrome (ARDS) (FIG. 11). All drugs were injected in a dose of 0.14 μmol/kg. Male Sprague-Dawley rats were anesthetized, orotracheally intubated, instrumented with arterial/venous catheters, and mechanically ventilated (PEEP 2 mmHg, FiO2 1.0). After a right lateral thoracotomy, a suture was tied around the hilum of the right lung. Animals underwent 70 min of right lung ischemia plus hemorrhage to a mean arterial blood pressure (MAP) of 40 mmHg for the last 30 min of lung ischemia. At t=70 min, the suture was removed, animals were ventilated with FiO2 1.0, PEEP 5 mmHg and resuscitated with crystalloids to a MAP of 60 mmHg until t=300 min. Vehicle and drugs were injected i.v. within 10 min after reperfusion.
We further evaluated histomorphology of the lungs from animals treated with vehicle, wild-type CXCL12, CXCL12-LD and CXCXL12-LM utilizing a standardized lung injury score. Lung slides stained with hematoxylin and eosin were examined under a light microscope by 4 investigators blinded to the identity of the specimens. The lung injury score was assessed as previously described/. In brief each investigator rendered a score of 0 (no damage) to 4+(maximal damage) based on an injury grading scale composed of six criteria. The slides were assessed for the extent of alveolar congestion, hemorrhage and edema, as well as alveolar and vessel wall PMN infiltration and alveolar wall thickness. […] Lung injury scores of the uninjured and injured lungs from animals treated with vehicle, wild-type CXCL12, CXCL12-LD and CXCXL12-LM are shown in FIGS. […], respectively.

CXCR4 = biological target: T1, CXCR4 (Homo sapiens, UniProt P61073); assay: Presto-Tango β-arrestin 2 recruitment assay for CXCR4; type: cell-based
T1 construct: host or cells: HTLA cells (HEK293 line stably expressing a tTA-dependent luciferase reporter and a β-arrestin2-TEV fusion gene)
T1 sequence (P61073 whole entry, the tested form may be a part): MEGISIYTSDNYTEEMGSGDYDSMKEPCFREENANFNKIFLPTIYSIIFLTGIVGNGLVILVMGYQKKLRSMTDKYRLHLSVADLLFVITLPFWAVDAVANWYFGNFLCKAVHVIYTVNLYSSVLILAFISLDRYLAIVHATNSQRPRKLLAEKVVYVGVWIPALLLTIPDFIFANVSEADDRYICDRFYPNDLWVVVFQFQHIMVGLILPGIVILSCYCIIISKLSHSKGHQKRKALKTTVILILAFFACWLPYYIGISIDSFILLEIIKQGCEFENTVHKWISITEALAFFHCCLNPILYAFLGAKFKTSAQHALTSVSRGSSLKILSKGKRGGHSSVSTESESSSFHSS
Protocol: FIGS. 6A-6F show Presto-Tango β-arrestin 2 recruitment assays for CXCR4 (A-C) and ACKR3 (D-F). RLU %: % of the luminescence signal for 1 μM CXCL12α. N=9 for CXCL12a and n=3 for all other proteins.
Presto-Tango β-arrestin 2 recruitment assay—The PRESTO-Tango (parallel receptorome expression and screening via transcriptional out-put, with transcriptional activation following arrestin translocation) assay was performed as recently described. The Tango plasmids were a gift from Dr. Bryan Roth (all from Addgene). HTLA cells (2.5×10^5/well) were seeded in a 6-well plate and transfected with 1.5 μg of the Tango plasmids using Lipofectamine 3000 (ThermoScientific). The following day, transfected HTLA cells (1×10^5 cells/well) were plated onto Poly-L-Lysine pre-coated 96-well micro-plates and allowed to attach to the plate surface for at least 4 hours prior to treatment. Proteins used for treatment were prepared in twice the final concentration in culture media, added at a 1:1 vol/vol ratio and incubated overnight at 37° C., 5% CO2 in a humidified environment. The following morning, media was removed from cell culture plates and replaced with a 100 μL 1:5 mixture of Bright-Glo (Promega) and 1×HBSS, 20 mM HEPES solution. Plates were then incubated at room temperature before measuring luminescence on a Biotek Synergy II plate reader.

potency (EC50) to recruit β-arrestin 2 to CXCR4, compared with CXCL12α (CXCR4) | Molecule | effect on thrombin-induced permeability of hPPAEC when added after thrombin (hPPAEC [1]; thrombin 35 nM, after 10 min CXCL12 or ubiquitin 50 nM, AMD3100 10 μM) | antagonism of the CXCL12 effect on thrombin-induced permeability (hPPAEC [1]; thrombin 35 nM, CXCL12 50 nM plus AMD3100 10 μM) | effect on hPPAEC monolayer permeability (hPPAEC [2]) | development of ARDS (P:F ratio) [3] | histological signs of lung injury, injured lung (lung injury score) [3] | potency to attenuate thrombin-induced permeability of hPPAEC (in words) (hPPAEC [1]) | concentration at which thrombin-mediated hPPAEC barrier impairment was affected (hPPAEC [1]; tested 0.05-50 nM, t=255 min) [nM]
– | c1cc(CN2CCCNCCNCCCNCC2)ccc1CN1CCCNCCNCCCNCC1 [AMD3100] | did not affect thrombin-mediated hyper-permeability of hPPAEC | could be antagonized | did not affect hPPAEC permeability | – | – | – | –
no statistically significant differences | CXCL121: constitutively monomeric CXCL12 variant with L55C and I58C substitutions (SEQ ID NO:2) | – | – | – | prevented development of ARDS | significantly reduced | – | –
no statistically significant differences | CXCL122: constitutively dimeric, disulfide-locked CXCL12 variant containing L36C/A65C mutations (SEQ ID NO:3) | – | – | – | prevented development of ARDS | significantly reduced | significantly reduced potency | 50
– | B1 | – | – | did not affect hPPAEC permeability | – | – | – | –
